Laboratory results from patent US5264443A, “3-aryl oxazolidinone compounds and therapeutic use thereof” (Delalande S.A., priority 1991, dated 1993).

Tested on: 5-hydroxy tryptophan (5-HTP)
Assay: potentialisation of 5-HTP in the rat (anti-depressive activity)
Type: in vivo
Details: 1 h, oral administration, 5-HTP intraperitoneally one hour after the first treatment, read-out: ED50 (dose producing generalised tremors or stereotypy in 50% of the animals)
Description: The anti-depressive activity was shown by the test of potentialisation of 5-HTP in the rat by the method described by M. JALFRE, B. BUCHER, A. COSTON, G. MOCQUET and R. D. PORSOLT: Arch. Int. Pharmacodyn., (1982), 259, 194-221. A determination on the rat was made of that dose of the product which, orally administered, produces generalised tremors or stereotypy (drumming, head movements) in 50% of the animals (ED50) after intraperitoneal administration of 5-hydroxy tryptophan (5-HTP) one hour after the first treatment. The results obtained in the preceding test, using some compounds according to the invention, are given by way of example in the following table: […]

| SMILES | ED50 [mg/kg] |
| --- | --- |
| COC[C@H]1CN(c2ccc(OCC[C@@H](OCc3ccncc3)C(F)(F)F)cc2)C(=O)O1 [MD 290057, 3-[4-[4,4,4-trifluoro 3-(4-pyridylmethoxy)(R)butoxy]phenyl]5-methoxymethyl(R)2-oxazolidinone] | 0.53 |
| COC[C@H]1CN(c2ccc(OCC[C@@H](OCc3ccc[n+]([O-])c3)C(F)(F)F)cc2)C(=O)O1 [MD 290065, 3-[4-[4,4,4-trifluoro3-(3-N-oxide-pyridylmethoxy)(R)butoxy]phenyl]5-methoxymethyl(R) 2-oxazolidinone] | 0.62 |
| COC[C@H]1CN(c2ccc(OCC[C@@H](OCc3cccnc3)C(F)(F)F)cc2)C(=O)O1 [MD 360411 (oxalate), 3-[4-[4,4,4-trifluoro 3-(3-pyridylmethoxy)(R)butoxy]phenyl]5-methoxymethyl(R)2-oxazolidinone] | 0.4 |
